In US6677330B1, “Fluorides of 4-substituted piperidine derivatives” (priority 1999, dated 2004) one finds IC50 and melting point data, which are given here for twelve compounds.

Where a name gives a salt, the structure may show the parent alone.

One data set concerns the target T1, acetylcholinesterase (Rattus norvegicus, UniProt P37136).
T1 construct: Using a rat brain homogenate as a source of acetylcholinesterase; from tissue; host or cells: rat brain homogenate
T1 sequence (P37136 32-614): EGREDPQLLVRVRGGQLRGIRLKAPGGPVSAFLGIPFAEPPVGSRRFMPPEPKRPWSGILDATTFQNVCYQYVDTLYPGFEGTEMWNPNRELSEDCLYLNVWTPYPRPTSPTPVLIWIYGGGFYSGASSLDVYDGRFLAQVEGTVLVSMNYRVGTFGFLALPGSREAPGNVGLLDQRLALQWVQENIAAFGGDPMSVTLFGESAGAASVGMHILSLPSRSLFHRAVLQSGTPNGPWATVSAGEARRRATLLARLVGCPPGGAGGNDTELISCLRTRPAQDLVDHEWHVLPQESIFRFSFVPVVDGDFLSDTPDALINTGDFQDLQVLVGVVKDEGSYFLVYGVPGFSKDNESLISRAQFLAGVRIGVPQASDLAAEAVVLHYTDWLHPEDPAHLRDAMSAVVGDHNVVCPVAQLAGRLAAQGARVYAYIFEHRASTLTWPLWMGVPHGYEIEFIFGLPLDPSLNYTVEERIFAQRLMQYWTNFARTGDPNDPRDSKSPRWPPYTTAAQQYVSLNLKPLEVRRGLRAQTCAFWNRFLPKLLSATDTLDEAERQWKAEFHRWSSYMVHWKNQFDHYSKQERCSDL
The data set is described as follows: biochemical. Particulars: rat brain homogenate as enzyme source; acetylthiocholine substrate, DTNB, absorbance at 412 nm; read-out: IC50 (50% inhibitory concentration on acetylcholinesterase). As to the method:
Inhibitory effect on acetylcholinesterase in vitro
Using a rat brain homogenate as a source of acetylcholinesterase, the esterase activity was determined in accordance with the method of Ellman et al^1). Acethylthiocholine (as a substrate), a test compound and DTNB (5,5′-dithiobis(2-nitrobenzoic acid)) were added to the […] brain homogenate, and then incubated. Then, the resulting yellow product produced by the reaction of the resulting thiocholine with DTNB was determined for the change in absorbanceat 412 nm, to determine the acethylcholinesterase activity.
^1); Ellman. G. L., Courtney, K. D., Andres, V. and Featherstone, R. M., (1961), Biochem. Pharmacol., 7, 88-95.
The inhibitory effect of each test compound on acethylcholinesterase was determined in terms of 50% inhibitory concentration (IC50).
Each of the compounds was dissolved in physiological saline for use as a test sample.

Take `COc1ccc2c(c1)CC(F)(CC1CCN(Cc3ccccc3)CC1)C2=O` (stereo not drawn) [Example 12, 1-Benzyl-4-[(5-methoxy-2-flouro-1-indanon)-2-yl]methylpiperidine Hydrochloride]: the IC50 on acetylcholinesterase turned out to be 1.2 nM.

The melting point is the temperature, or range, at which the solid turns liquid. `COc1cc2c(cc1OC)C(=O)C(F)(CC1CCN(Cc3ccccn3)CC1)C2` (stereo not drawn) (as salt: hydrochloride) came in with a melting point of 177 to 180 °C.

In turn, `COc1cc2c(cc1OC)C(=O)C(F)(CC1CCN(Cc3cccc(C#N)c3)CC1)C2` (stereo not drawn) (as salt: hydrochloride) came in with a melting point of 139 to 141 °C. For the compound `COc1cc2c(cc1OC)C(=O)C(F)(CC1CCN(Cc3ccc(O)cc3)CC1)C2` (stereo not drawn) [Example 15, 4-[(5,6-Dimethoxy-2-flouro-1-indanon)-2-yl]methyl-1-(4-hydroxybenzyl)piperidine Hydrochloride], the IC50 at acetylcholinesterase is 0.32 nM. The same measure, in the same setting: then `COc1cc2c(cc1OC)C(=O)C(F)(CC1CCN(Cc3cccc([N+](=O)[O-])c3)CC1)C2` (stereo not drawn) [Example 11, 4-[(5,6-Dimethoxy-2-flouro-1-indanon)-2-yl]methyl-1-(3-nitrobenzyl)piperidine Hydrochloride], with 0.7 nM; and `CCOc1cc2c(cc1OCC)C(=O)C(F)(CC1CCN(Cc3ccccc3)CC1)C2` (stereo not drawn) [Example 1, 1-Benezyl-4-[(5,6-diethoxy-2-flouro-1-indanon)-2-yl]methylpiperidine Hydrochloride], with 0.38 nM; and `COc1cc2c(cc1OC)C(=O)C(F)(CC1CCN(Cc3cccc(C)c3)CC1)C2` (stereo not drawn) [Example 5, 4-[(5,6-Dimethoxy-2-flouro-1-indanon)-2-yl]methyl-1-(3-methylbenzyl)piperidine Hydrochoride], with 0.82 nM. With `COc1cc2c(cc1OC)C(=O)C(F)(CCCC1CCN(Cc3ccccc3)CC1)C2` (stereo not drawn) [Example 14, 1-Benzyl-4-[3-[5,6-dimethoxy-2-flouro-1-indanon)-2-yl]propyl]piperidine Hydrochloride], the IC50 at acetylcholinesterase was 1.4 nM.

Take `COc1cc2c(cc1OC)C(=O)C(F)(CC1CCN(Cc3cccc(F)c3)CC1)C2` (stereo not drawn) [Example 4, 4-[(5,6-Dimethoxy-2-flouro-indanon)-2-yl]methyl-1-(3-flourobenzyl)piperidine Hydrochloride]: the IC50 at acetylcholinesterase came out at 0.47 nM. Still for that read-out and setting: then `CCCOc1cc2c(cc1OCCC)C(=O)C(F)(CC1CCN(Cc3ccccc3)CC1)C2` (stereo not drawn) [Example 17, 1-Benzyl-4-[[[5,6-di-(1-propyloxy)]-2-flouro-1-indanon-2-yl]methylpiperidine Hydrochloride], with 0.89 nM; and `COc1cc2c(cc1OC)C(=O)C(F)(CC1CCN(CC3CCCCC3)CC1)C2` (stereo not drawn) [Example 6, 1-(-Cyclohexylmethyl-4-[(5,6-dimethoxy-2-flouro-1-indanon)-2-yl]methylpiperidine Hydrochloride], with 1.7 nM.

Compound `COc1cc2c(cc1OC)C(=O)C(F)(CC1CCN(CC3OCCO3)CC1)C2` (stereo not drawn) (as salt: hydrochloride) registered a melting point of 143 to 145 °C.
